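The compound was tested at five concentrations on cells cultured in 96-well plates, with a 48-hour exposure period. TGI denotes the concentration required for complete inhibition of growth.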
What was measured:
Assay in all cases: growth of human tumour cells (NCI), 48 h
COLO 205 colon = tested on: COLO 205 colon
K-562 leukemia = tested on: K-562 leukemia
MCF7 breast = tested on: MCF7 breast
NCI-H226 lung = tested on: NCI-H226 lung
NCI-H522 lung = tested on: NCI-H522 lung
OVCAR-4 ovarian = tested on: OVCAR-4 ovarian
PC-3 prostate = tested on: PC-3 prostate
SF-268 CNS = tested on: SF-268 CNS
SF-295 CNS = tested on: SF-295 CNS
SF-539 CNS = tested on: SF-539 CNS
SK-MEL-5 melanoma = tested on: SK-MEL-5 melanoma
SN12C renal = tested on: SN12C renal
SNB-19 CNS = tested on: SNB-19 CNS
UACC-62 melanoma = tested on: UACC-62 melanoma

SMILES | TGI (COLO 205 colon) [µM] | TGI (K-562 leukemia) [µM] | TGI (MCF7 breast) [µM] | TGI (NCI-H226 lung) [µM] | TGI (NCI-H522 lung) [µM] | TGI (OVCAR-4 ovarian) [µM] | TGI (PC-3 prostate) [µM] | TGI (SF-268 CNS) [µM] | TGI (SF-295 CNS) [µM] | TGI (SF-539 CNS) [µM] | TGI (SK-MEL-5 melanoma) [µM] | TGI (SN12C renal) [µM] | TGI (SNB-19 CNS) [µM] | TGI (UACC-62 melanoma) [µM]
COc1ccc(NC(/C(C(=O)C(=O)/C=C(\O)c2ccccc2)=C(\O)c2ccccc2)c2ccc(OC)cc2)cc1 (configuration not stated) | > 100 | > 100 | > 100 | > 100 | 50.5 | > 100 | > 100 | > 100 | > 100 | > 100 | > 100 | > 100 | > 100 | > 100
CCOC(=O)c1csc(-c2cn(C)c3c2C(=O)C(OC)=CC3=O)n1 | > 89.6 | > 100 | 69.8 | > 100 | > 100 | > 100 | > 100 | > 100 | 96.9 | > 82.9 | 12.7 | > 100 | > 100 | > 59
CC(=O)OC(C)c1cc2c(s1)C(=O)c1ccsc1C2=O (configuration not stated) | 2.61 | 0.473 | 1.24 | 3.79 | 0.354 | 1.93 | 0.201 | 0.812 | 0.233 | 0.182 | 0.0743 | 0.355 | 0.317 | 0.23
CCOC(=O)C1=NNC(C(=O)c2ccccc2)C1c1ccccc1 (configuration not stated) | 3.69 | > 100 | 5.82 | 39.5 | 2.02 | > 38.3 | 22.5 | 19.2 | 31.8 | 4.76 | 5.78 | 3.89 | 27.8 | 8.63
COc1ccc(C2=NN(C(=O)c3ccc(Cl)cc3)C(O)(c3cc(F)c(Cl)cc3Cl)C2)cc1 (configuration not stated) | > 100 | > 100 | > 100 | > 100 | > 100 | > 100 | > 100 | > 100 | > 100 | > 100 | > 100 | > 100 | > 100 | > 100
COc1ccc(NC(=O)NNS(=O)(=O)c2ccc(C)cc2)cc1 | > 100 | > 100 | > 100 | > 100 | > 100 | > 100 | > 100 | > 100 | > 100 | > 100 | > 100 | > 100 | > 100 | > 100
Oc1cccc2ccc(Br)nc12 | > 100 | > 100 | > 100 | > 100 | > 100 | > 100 | > 100 | > 100 | > 100 | > 100 | > 100 | > 100 | > 100 | > 100
C1=Cc2cccc3occ(c23)C=C1 | 90.7 | 40.1 | > 100 | > 100 | > 100 | > 100 | > 100 | > 100 | > 100 | > 100 | > 100 | > 100 | > 100 | > 100
Cc1ccc(O)c(C2=NNC(c3cccc(Cl)c3)C2)c1 (configuration not stated) | > 100 | > 100 | > 100 | > 100 | 53.6 | 94 | > 100 | > 100 | > 100 | > 100 | > 100 | > 100 | 55.8 | > 100
N#CC(C#N)=Cn1c(=S)[nH]c2ccc([N+](=O)[O-])cc21 | > 100 | > 100 | > 100 | > 100 | > 100 | > 100 | > 100 | > 100 | > 100 | > 100 | > 100 | > 100 | > 100 | > 100
Cc1ccc(S(=O)(=O)NNC(=O)Nc2ccc([N+](=O)[O-])cc2)cc1 | > 100 | > 100 | > 100 | > 100 | > 100 | 89.4 | > 100 | > 100 | > 100 | > 100 | > 100 | > 100 | > 100 | 98
COC(=O)/C(C#N)=C/c1cc(C(C)(C)C)c(O)c(C(C)(C)C)c1 | 2.78 | > 47.8 | 15.7 | 9.6 | 5.52 | > 51.2 | 6.78 | > 40.5 | 6.74 | 11 | 3.39 | 8.17 | > 100 | 15.1
O=c1c2ccccc2nc(N/N=C/c2ccc(Cl)cc2)n1-c1ccccc1 | > 100 | > 100 | > 100 | > 100 | > 100 | > 100 | > 100 | > 100 | > 100 | > 100 | > 100 | > 100 | > 100 | > 100
Nc1ncc2c(n1)-c1ccccc1OC2N1CCOCC1 (configuration not stated) | > 100 | > 100 | > 100 | > 100 | > 100 | > 100 | > 100 | > 100 | > 100 | > 100 | > 100 | > 100 | > 100 | > 100
CC1N=C(c2ccccc2)OC1=O (configuration not stated) | > 100 | > 100 | > 100 | > 100 | > 100 | > 100 | > 100 | > 100 | > 100 | > 100 | > 100 | > 100 | > 100 | > 100
N#Cc1c(N)c2c(c(-c3ccccc3)c1-c1ccccc1)C(=O)N(O)C2=O | 52.2 | > 100 | > 100 | 62.8 | > 100 | > 100 | 48.1 | > 100 | > 100 | > 100 | > 100 | > 100 | > 100 | > 100
C=CCN1C(=O)CS/C1=N\NC(=O)CSc1nc2ccccc2c(=O)n1CC | > 100 | > 100 | > 100 | > 100 | > 100 | > 100 | > 100 | > 100 | > 100 | > 100 | > 100 | > 100 | > 100 | > 100
CC12CCC(=O)[C@@]1(C)CCCC2O (some centres not stated) | > 100 | > 100 | > 100 | > 100 | > 100 | > 100 | > 100 | > 100 | > 100 | > 100 | > 100 | > 100 | > 100 | > 100

Source: PubChem BioAssay (NCI)
